Measured values published in article PMC8821551, “Binding of cationic analogues of α-MSH to lipopolysaccharide and disruption of the cytoplasmic membranes caused bactericidal action against Escherichia coli” (Scientific Reports, 2022).
Residues, ends and D or L forms follow the SMILES beside them.

System: LPS from E. coli O55:B5
Test: LPS binding assay (BODIPY-TR-cadaverine displacement)
Parameters: species or system Escherichia coli
Conditions: BC displacement, LPS 50 μg/mL, 5 µM BC, 50 mM Tris buffer pH 7.4, peptide 0.25 to 20 µM, Hill equation fit, mean Kd ± SD of two independent experiments, read-out: Kd (dissociation constant) with LPS
Method: The binding of α-MSH and its analogues to LPS was checked using BODIPY-TR-cadaverine (BC) as a fluorescent probe[24],[42]. BC fluorescence decreases when bound to cell-free LPS and increases when it is freely accessible in solution. LPS (50 μg/mL) from E. coli O55:B5 (Sigma-Aldrich, India) was incubated with 5 µM of BC in 50 mM Tris buffer (pH 7.4) for 4 h. Next, 800 µL of this LPS-BC mixture was added to varying concentrations (0.25 µM to 20 µM) of the peptides in a quartz cuvette, and the BC fluorescence was measured on a spectrofluorimeter (Shimadzu RF-5301 PC) with excitation at 580 nm and emission at 620 nm. Each experiment was done in duplicate independently. Increase in fluorescence intensities with increase in concentration of peptides were plotted and the dissociation constant (Kd) was calculated from each individual data set and is presented as mean value ± SD using Igor Pro 6.36 (Y = Bmax × Xˆh/(Kdˆh + Xˆh); where X: concentration of peptide (µM), Y: fluorescence intensity (a.u.), h: Hill slope)[43]. The molecular mass of LPS was taken as 20,000 Da as described elsewhere, and its concentration was calculated accordingly.
Table S1: The dissociation constant (Kd) of α-MSH and its analogues with LPS. […]

CSCC[C@H](NC(=O)[C@H](CCCCN)NC(=O)[C@H](Cc1ccc(O)cc1)NC(=O)[C@H](CCCCN)NC(C)=O)C(=O)N[C@@H](CCCCN)C(=O)N[C@@H](Cc1c[nH]cn1)C(=O)N[C@@H](Cc1ccccc1)C(=O)N[C@@H](CCCNC(=N)N)C(=O)N[C@@H](Cc1c[nH]c2ccccc12)C(=O)NCC(=O)N[C@@H](CCCCN)C(=O)N1CCC[C@H]1C(=O)N[C@H](C(N)=O)C(C)C [KKK-MSH] (Ac-KYKMKHFRWGKPV-NH2)
Kd: 9.8 ± 6.3 µM
